Test results reported in US12606561B2, “Substituted pyrazolo[1,5-a][1,3,5]triazines as CDK inhibitors” (QURIENT CO., LTD., priority 2018, dated 2026).

Key:
[1] = biological target: T1, CDK1/Cyclin B (Homo sapiens, UniProt P06493); assay: Enzymatic assay for CDK1 (LANCE Ultra kinase assay, FRET based); type: biochemical; settings: ATP at Km; read-out: CDK1 enzymatic activity IC50
T1 construct: purchased Invitrogen PR4768C
How it was run: (§1)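 TR-FRET (LANCE Ultra) kinase assays with a ULight-labelled peptide substrate and a Europium-labelled anti-phospho antibody. ATP was set at its Km for each kinase. Inhibition was measured on purified CDK/cyclin complexes: CDK7/Cyclin H/MNAT1 and CDK1/Cyclin B.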

[2] = biological target: T2, CDK2/Cyclin A (Homo sapiens, UniProt P24941); assay: Enzymatic assay for CDK2 (LANCE Ultra kinase assay, FRET based); type: biochemical; settings: ATP at Km
T2 construct: purchased Invitrogen PV6290
How it was run: (§2)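 Compounds tested as 8 doses in 4-fold steps against CDK2/Cyclin A ([…]) or CDK5/p25 ([…]), with ATP at its Km and 68 nM ULight-MBP substrate. After 60 min at 23° C., EDTA plus Eu-labelled anti-phospho-MBP added; TR-FRET (615/665 nm) read after another 60 min.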

[3] = biological target: T3, CDK5/p25 (Homo sapiens, UniProt Q00535); assay: Enzymatic assay for CDK5 (LANCE Ultra kinase assay, FRET based); type: biochemical; settings: ATP at Km
T3 construct: purchased Invitrogen PR8543B
How it was run: as §2

[4] = biological target: T4, CDK7/Cyclin H/MNAT1 (Homo sapiens, UniProt P50613); assay: Enzymatic assay for CDK7 (LANCE Ultra kinase assay, FRET based); type: biochemical; settings: for IC50: ATP at Km
T4 construct: purchased Invitrogen PR6749B
How it was run: as §1

[5] = tested on: H460; assay: Cellular H460 viability assay (CellTiter-Glo, 72 hours); type: cell-based; settings: Homo sapiens, NCI-H460; H460 cells
Experimental: All cell lines were routinely tested for mycoplasma.
To effect of the CDK7 inhibitor to inhibit the growth of target cancer cells, viability assay were conducted a 72 hour time period. Briefly, the candidate cell line was plated in 96 well plate at the following density of cells respectively. 1×10^4 cells/well for MV4-11, 5×10^3 for H460 and OVCAR-3, and 1×10^3 for A2780. […] DMSO solvent without compound served as a control and final DMSO concentration lest than 0.1%. After 72 hours of incubation at 37° C., 5% CO2 incubator, cells were analyzed for the viability using the CellTiter-Glo Luminescent Cell Viability Assay (Promega, Cat #G7570). All viability assays were performed in duplicate and Luminescence was read using an Envision (Perkin Elmer, USA). Data was analyzed using XLfit software.

[6] = tested on: MV4-11; assay: Cellular MV4-11 viability assay (CellTiter-Glo, 72 hours); type: cell-based; settings: Homo sapiens; MV4-11 cells
How it was run: (§3)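 Cells in RPMI-1640 with 10% FBS were seeded (MV4-11 1×10^4, OVCAR-3 5×10^3, A2780 1×10^3 cells/well) and treated 24 h later with compound at 0.0015–10 uM, final DMSO under 0.1%. After 72 h at 37 °C, viability was read by CellTiter-Glo luminescence, in duplicate.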

[7] = tested on: A2780; assay: A2780 viability assay (CellTiter-Glo, 72 hours); type: cell-based; settings: Homo sapiens; A2780 cells
How it was run: as §3

[8] = tested on: OVCAR-3; assay: OVCAR-3 viability assay (CellTiter-Glo, 72 hours); type: cell-based; settings: Homo sapiens; OVCAR-3 cells
How it was run: as §3

T3 sequence (Q00535 whole entry): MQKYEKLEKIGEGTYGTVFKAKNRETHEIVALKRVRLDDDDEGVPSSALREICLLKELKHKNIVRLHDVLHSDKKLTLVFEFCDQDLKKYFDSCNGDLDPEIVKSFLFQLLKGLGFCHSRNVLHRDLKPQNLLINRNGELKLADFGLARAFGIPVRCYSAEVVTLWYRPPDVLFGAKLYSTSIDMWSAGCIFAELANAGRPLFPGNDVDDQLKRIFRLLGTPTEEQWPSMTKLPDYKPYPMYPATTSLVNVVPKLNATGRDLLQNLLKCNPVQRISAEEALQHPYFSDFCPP
T3 sequence (Q15078 99-307 partner limits assumed): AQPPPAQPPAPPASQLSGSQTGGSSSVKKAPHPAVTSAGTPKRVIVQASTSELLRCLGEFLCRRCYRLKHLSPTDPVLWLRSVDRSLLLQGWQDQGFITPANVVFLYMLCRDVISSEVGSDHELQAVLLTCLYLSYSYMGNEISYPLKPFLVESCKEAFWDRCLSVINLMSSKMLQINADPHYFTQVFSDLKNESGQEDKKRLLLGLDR
T1 sequence (P06493 whole entry): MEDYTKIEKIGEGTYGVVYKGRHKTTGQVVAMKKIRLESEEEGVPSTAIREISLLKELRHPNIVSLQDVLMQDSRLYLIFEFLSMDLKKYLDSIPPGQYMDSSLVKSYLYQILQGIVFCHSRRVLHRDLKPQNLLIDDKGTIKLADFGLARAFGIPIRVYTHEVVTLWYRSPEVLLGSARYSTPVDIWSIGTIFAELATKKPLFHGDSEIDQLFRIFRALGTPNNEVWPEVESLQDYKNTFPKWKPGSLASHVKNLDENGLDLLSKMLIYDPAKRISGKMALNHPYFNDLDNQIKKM
T1 sequence (P14635 whole entry partner): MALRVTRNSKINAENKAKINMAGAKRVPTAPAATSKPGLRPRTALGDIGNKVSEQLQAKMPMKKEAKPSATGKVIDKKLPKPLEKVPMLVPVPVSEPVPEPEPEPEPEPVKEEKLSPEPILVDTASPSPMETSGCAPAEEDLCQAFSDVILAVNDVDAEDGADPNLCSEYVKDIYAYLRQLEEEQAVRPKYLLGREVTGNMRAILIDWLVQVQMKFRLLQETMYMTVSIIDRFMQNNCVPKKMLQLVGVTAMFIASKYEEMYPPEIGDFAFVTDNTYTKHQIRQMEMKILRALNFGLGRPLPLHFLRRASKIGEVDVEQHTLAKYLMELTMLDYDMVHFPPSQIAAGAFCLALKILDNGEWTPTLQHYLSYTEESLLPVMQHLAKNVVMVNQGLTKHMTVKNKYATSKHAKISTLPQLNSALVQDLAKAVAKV
T4 sequence (P50613 whole entry): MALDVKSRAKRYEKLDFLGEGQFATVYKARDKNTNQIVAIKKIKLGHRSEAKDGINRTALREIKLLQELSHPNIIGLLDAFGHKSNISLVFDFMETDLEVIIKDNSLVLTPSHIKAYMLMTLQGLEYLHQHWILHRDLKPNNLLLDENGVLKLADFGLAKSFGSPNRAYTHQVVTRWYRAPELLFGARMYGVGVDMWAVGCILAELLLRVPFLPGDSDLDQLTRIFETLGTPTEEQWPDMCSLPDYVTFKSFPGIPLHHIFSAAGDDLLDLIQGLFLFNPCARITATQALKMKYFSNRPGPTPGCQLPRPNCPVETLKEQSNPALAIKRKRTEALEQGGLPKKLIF
T4 sequence (P51946 whole entry partner): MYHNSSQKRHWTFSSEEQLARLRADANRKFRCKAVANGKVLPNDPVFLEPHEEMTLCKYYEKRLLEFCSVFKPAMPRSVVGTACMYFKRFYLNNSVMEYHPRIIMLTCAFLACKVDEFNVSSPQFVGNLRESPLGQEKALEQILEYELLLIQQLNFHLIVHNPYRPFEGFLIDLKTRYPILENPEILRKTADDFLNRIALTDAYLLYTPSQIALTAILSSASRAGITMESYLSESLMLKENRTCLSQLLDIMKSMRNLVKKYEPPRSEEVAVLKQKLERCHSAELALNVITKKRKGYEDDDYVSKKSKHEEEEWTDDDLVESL
T4 sequence (P51948 whole entry partner): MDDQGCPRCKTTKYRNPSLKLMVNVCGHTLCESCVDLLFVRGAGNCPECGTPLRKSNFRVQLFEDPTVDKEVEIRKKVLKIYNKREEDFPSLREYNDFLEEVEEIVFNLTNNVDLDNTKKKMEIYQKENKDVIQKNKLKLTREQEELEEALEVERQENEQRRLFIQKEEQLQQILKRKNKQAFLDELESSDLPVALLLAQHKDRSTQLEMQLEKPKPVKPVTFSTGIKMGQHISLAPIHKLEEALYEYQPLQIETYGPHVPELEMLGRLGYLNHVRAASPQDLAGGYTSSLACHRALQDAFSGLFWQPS

Row | Compound | IC50 [1] | IC50 [2] | IC50 [3] | IC50 [4] | CDK1/CDK7: Selectivity of CDK7 inhibition over CDK1 inhibition [4] | CDK2/CDK7: Selectivity of CDK7 inhibition over CDK2 inhibition [4] | CDK5/CDK7: Selectivity of CDK7 inhibition over CDK5 inhibition [4] | IC50 [5] | IC50 [6] | IC50 [7] | IC50 [8]
1 | CC(C)c1cnn2c(NCc3ccccc3NC(=O)c3cccc(NC(=O)/C=C/CN(C)C)c3)nc(N3CCC(N)CC3)nc12 [Compound 8] | > 1 µM | > 1 µM | 0.1 to 1 µM | < 0.1 µM | A (A indicates [fold] > 500) | B (B indicates 50 < [fold] ≤ 500) | B (B indicates 50 < [fold] ≤ 500) | < 1 µM |  |  | 
2 | CC(C)c1cnn2c(NCc3ccccc3-c3cc4cc(NC(=O)/C=C/CN(C)C)ccc4[nH]3)nc(N3CCC(N)CC3)nc12 [Compound 19] | 0.1 to 1 µM | < 0.1 µM | < 0.1 µM | < 0.1 µM | C (C indicates [fold] ≤ 50) | C (C indicates [fold] ≤ 50) | C (C indicates [fold] ≤ 50) | 1 to 10 µM |  |  | 
3 | CC(C)c1cnn2c(NCc3cccc(NC4CCCN(C(=O)/C=C/CN(C)C)CC4)c3)nc(N3CCC(N)CC3)nc12 (racemic) [Compound 21] | > 1 µM | > 1 µM | 0.1 to 1 µM | < 0.1 µM | A (A indicates [fold] > 500) | B (B indicates 50 < [fold] ≤ 500) | B (B indicates 50 < [fold] ≤ 500) | 1 to 10 µM |  |  | 
4 | CC(C)c1cnn2c(NCc3ccccc3Oc3ccc(NC(=O)/C=C/CN(C)C)cc3)nc(N3CCC(N)CC3)nc12 [Compound 10] | > 1 µM | 0.1 to 1 µM | 0.1 to 1 µM | < 0.1 µM | B (B indicates 50 < [fold] ≤ 500) | B (B indicates 50 < [fold] ≤ 500) | C (C indicates [fold] ≤ 50) | < 1 µM |  |  | 
5 | CC(C)c1cnn2c(NCc3ccccc3-n3cc4cccc(NC(=O)/C=C/CN(C)C)c4n3)nc(N3CCC(N)CC3)nc12 [Compound 16] | > 1 µM | 0.1 to 1 µM | 0.1 to 1 µM | < 0.1 µM | B (B indicates 50 < [fold] ≤ 500) | B (B indicates 50 < [fold] ≤ 500) | C (C indicates [fold] ≤ 50) | < 1 µM |  |  | 
6 | CC(C)c1cnn2c(NCc3cccc(Oc4cccc(NC(=O)/C=C/CN(C)C)c4)c3)nc(N3CCC(N)CC3)nc12 [Compound 2] | 0.1 to 1 µM | 0.1 to 1 µM | 0.1 to 1 µM | < 0.1 µM | B (B indicates 50 < [fold] ≤ 500) | B (B indicates 50 < [fold] ≤ 500) | C (C indicates [fold] ≤ 50) | < 1 µM |  |  | 
7 | CC(C)c1cnn2c(NCc3ccccc3-c3nccc4c(NC(=O)/C=C/CN(C)C)cccc34)nc(N3CCC(N)CC3)nc12 [Compound 9] |  |  |  |  |  |  |  | 1 to 10 µM |  |  | 
8 | CC(C)c1cnn2c(NCc3ccccc3-c3nccc4cc(NC(=O)/C=C/CN(C)C)ccc34)nc(-n3ccc(CO)n3)nc12 [Compound 41] | > 1 µM | > 1 µM | > 1 µM | < 0.1 µM | B (B indicates 50 < [fold] ≤ 500) | B (B indicates 50 < [fold] ≤ 500) | B (B indicates 50 < [fold] ≤ 500) |  | < 1 µM | < 1 µM | < 1 µM
9 | CC(C)c1cnn2c(NCc3ccccc3-c3nccc4cc(NC(=O)/C=C/CN(C)C)ccc34)nc(N3CCC(N(C)C)CC3)nc12 [Compound 39] | > 1 µM | > 1 µM | > 1 µM | < 0.1 µM | A (A indicates [fold] > 500) | A (A indicates [fold] > 500) | B (B indicates 50 < [fold] ≤ 500) |  | < 1 µM | < 1 µM | < 1 µM
10 | CC#CC(=O)Nc1ccc2c(-c3ccccc3CNc3nc(N4CCC(N)CC4)nc4c(C(C)C)cnn34)nccc2c1 [Compound 47] | > 1 µM | > 1 µM | > 1 µM | < 0.1 µM | A (A indicates [fold] > 500) | A (A indicates [fold] > 500) | B (B indicates 50 < [fold] ≤ 500) |  | < 1 µM | < 1 µM | < 1 µM
11 | CC(C)c1cnn2c(NCc3cccc(Oc4ccc(F)c(NC(=O)/C=C/CN(C)C)c4)c3)nc(N3CCC(N)CC3)nc12 [Compound 13] |  |  |  |  |  |  |  | < 1 µM |  |  | 
12 | CC(C)c1cnn2c(NCc3ccccc3-c3ccnc4cc(NC(=O)/C=C/CN(C)C)ccc34)nc(N3CCC(N)CC3)nc12 [Compound 55] | > 1 µM | > 1 µM | > 1 µM | < 0.1 µM | A (A indicates [fold] > 500) | A (A indicates [fold] > 500) | B (B indicates 50 < [fold] ≤ 500) |  | < 1 µM | < 1 µM | < 1 µM
13 | C/C=C/C(=O)Nc1cccc2cc(-c3cccc(C)c3CNc3nc(NC[C@H]4CCNC[C@@H]4O)nc4c(C(C)C)cnn34)[nH]c12 [Compound 73] | > 1 µM | > 1 µM | > 1 µM | < 0.1 µM | A (A indicates [fold] > 500) | A (A indicates [fold] > 500) | B (B indicates 50 < [fold] ≤ 500) |  | < 1 µM | 1 to 10 µM | 1 to 10 µM
14 | CC(C)c1cnn2c(NCc3ccccc3-c3nccc4cc(NC(=O)/C=C/CN(C)C)ccc34)nc(N3CCC(O)C3)nc12 (racemic) [Compound 37] | > 1 µM | > 1 µM | > 1 µM | 0.1 to 1 µM | B (B indicates 50 < [fold] ≤ 500) | B (B indicates 50 < [fold] ≤ 500) | B (B indicates 50 < [fold] ≤ 500) |  | < 1 µM | < 1 µM | < 1 µM
15 | C/C=C/C(=O)Nc1ccc2c(-c3ccccc3CNc3nc(NCC4CNCCO4)nc4c(C(C)C)cnn34)nccc2c1 (racemic) [Compound 69] | > 1 µM | > 1 µM | > 1 µM | < 0.1 µM | B (B indicates 50 < [fold] ≤ 500) | B (B indicates 50 < [fold] ≤ 500) | B (B indicates 50 < [fold] ≤ 500) |  | < 1 µM | < 1 µM | < 1 µM
16 | C/C=C/C(=O)Nc1ccc2c(ccn2-c2ccccc2CNc2nc(NC[C@H]3CCNC[C@@H]3O)nc3c(C(C)C)cnn23)c1 [Compound 74] | > 1 µM | > 1 µM | 0.1 to 1 µM | < 0.1 µM | B (B indicates 50 < [fold] ≤ 500) | B (B indicates 50 < [fold] ≤ 500) | B (B indicates 50 < [fold] ≤ 500) |  | < 1 µM | < 1 µM | < 1 µM
17 | COC1CCN(c2nc(NCc3ccccc3-c3nccc4cc(NC(=O)/C=C/CN(C)C)ccc34)n3ncc(C(C)C)c3n2)CC1 [Compound 61] | > 1 µM | > 1 µM | > 1 µM | < 0.1 µM | A (A indicates [fold] > 500) | A (A indicates [fold] > 500) | A (A indicates [fold] > 500) |  | < 1 µM | < 1 µM | < 1 µM
